Source: patent US20020065227A1, “Charged compounds comprising a nucleic acid binding moiety and uses therefor” (priority 2000, published 2002)
Converted amounts (≈) assume the structure as drawn. “And” between values parts separate entries of the source, which are not always exact repeats. Equal values may be shown once.

Experiments:
[1] = tested on: Staphylococcus aureus (29213); experiment: MIC, NCCLS broth microdilution; type: cell-based; details: Staphylococcus aureus (29213)
[2] = tested on: Enterococcus faecium (51559) (vacomycin resistant); experiment: MIC, NCCLS broth microdilution; type: cell-based; details: Enterococcus faecium (51559), vancomycin resistant
[3] = tested on: Staphylococcus epidermidis (12228); experiment: MIC, NCCLS broth microdilution; type: cell-based; details: Staphylococcus epidermidis (12228)
[4] = tested on: Staphylococcus aureus (33591) (methicillin resistant); experiment: MIC, NCCLS broth microdilution; type: cell-based; details: Staphylococcus aureus (33591), methicillin resistant (MRSA)
[5] = tested on: Corynebacterium Group A (49676); experiment: MIC, NCCLS broth microdilution; type: cell-based; details: Corynebacterium Group A (49676)
[6] = tested on: Streptococcus pneumoniae (49619); experiment: MIC, NCCLS broth microdilution; type: cell-based; details: Streptococcus pneumoniae (49619)
Micrococcus luteus (381) = experiment: MIC, NCCLS broth microdilution; type: cell-based
[7] = tested on: Pseudomona aeruginosa (27853); experiment: MIC, NCCLS broth microdilution; type: cell-based; details: Pseudomona aeruginosa (27853)
[8] = tested on: Enterococcus faecalis (29212); experiment: MIC, NCCLS broth microdilution; type: cell-based; details: Enterococcus faecalis (29212)
Esherichia coli (25922) = experiment: MIC, NCCLS broth microdilution; type: cell-based, Escherichia coli; details: Escherichia coli (25922)
Bacillus cereus (11778) = experiment: MIC, NCCLS broth microdilution; type: cell-based
[9] = tested on: Streptococcus pneumoniae (51422) (multiple drug resistant); experiment: MIC, NCCLS broth microdilution; type: cell-based
[10] = tested on: Streptococcus pyogenes (49339); experiment: MIC, NCCLS broth microdilution; type: cell-based; details: Streptococcus pyogenes (49339); Table Ia: Streptococcus Group A(49339)
[11] = tested on: Candida albicans (38247) (Polyene resistant); experiment: MIC, antifungal assay; type: cell-based
ACTACT = experiment: DNase I footprint titration, ACTACT site; type: binding; details: equilibrium association constant Ka; pH 7.0, 22° C.
[12] = tested on: Clostridium perfringens (13124); experiment: microbe, parasite or virus in culture; type: cell-based; details: Clostridium perfringens (13124), anaerobe
[13] = tested on: Propionibacterium acnes (33179); experiment: MIC, NCCLS broth microdilution; type: cell-based; details: anaerobe
ATTACT = experiment: DNase I footprint titration, ATTACT site; type: binding; details: equilibrium association constant Ka; pH 7.0, 22° C.
AGTACT = experiment: DNase I footprint titration, AGTACT site; type: binding; details: equilibrium association constant Ka; pH 7.0, 22° C.
AATACT = experiment: DNase I footprint titration, AATACT site; type: binding; details: equilibrium association constant Ka; pH 7.0, 22° C.
Candida albicans (90028) = experiment: MIC, antifungal assay; type: cell-based
Bacillus subtilis (6633) = experiment: MIC, NCCLS broth microdilution; type: cell-based; details: Bacillus subtilis (6633)
[14] = tested on: Peptostreptococcus asaccharolytics (29743); experiment: MIC, NCCLS broth microdilution; type: cell-based; details: anaerobe
[15] = tested on: Candida parapsilosis (10232); experiment: MIC, antifungal assay; type: cell-based; details: Candida parapsilosis (10232)
[16] = tested on: Haemophilus influenzae (49247); experiment: MIC, NCCLS broth microdilution; type: cell-based; details: Haemophilus influenzae (49247)
[17] = tested on: Cryptococcus neoformans (90112); experiment: MIC, antifungal assay; type: cell-based; details: Cryptococcus neoformans (90112)
[18] = Bacillus cereus, strain not stated

CN(C)CCCNC(=O)c1cc(NC(=O)c2cc(NC(=O)c3cc(NC(=O)c4nsc(NCCCN(C)C)c4Cl)cn3C)cn2C)cn1C [V-q]
MIC [1]: 8 to 16 µg/mL | MIC [2]: 4 µg/mL (≈ 5.6 µM) | MIC [3]: 4 µg/mL (≈ 5.6 µM) | MIC [4]: 16 µg/mL (≈ 22.4 µM) | MIC [5]: 1 µg/mL (≈ 1.4 µM) | MIC [6]: 2 µg/mL (≈ 2.8 µM) | MIC (Micrococcus luteus (381)): 8 µg/mL (≈ 11.2 µM) | MIC [7]: >128 µg/mL | MIC [8]: 1 µg/mL (≈ 1.4 µM) | MIC (Esherichia coli (25922)): >128 µg/mL | MIC (Bacillus cereus (11778); Bacillus cereus (11778)): 4 to 8 µg/mL | MIC [9]: 4 µg/mL (≈ 5.6 µM) | MIC [10]: 1 µg/mL (≈ 1.4 µM)

Cn1cc(NC(=O)c2cc(NC(=O)c3nsc(NCCN4CCOCC4)c3Cl)cn2C)cc1C(N)=O [V-bb]
MIC (Bacillus cereus (11778); [18]): 8 µg/mL (≈ 15 µM)

Cn1cc(NC(=O)c2cc(NC(=O)c3cc(NC(=O)c4nsc(NCCN5CCOCC5)c4Cl)cn3C)cn2C)cc1C(=O)NCCN1CCOCC1 [V-gg]
MIC [1]: 2, μg/mL and 1 μg/mL | MIC (Esherichia coli (25922)): 32 µg/mL (≈ 41.5 µM) | MIC [11]: 32 µg/mL (≈ 41.5 µM)

CN(C)CCCNC(=O)c1cc(NC(=O)c2cc(NC(=O)c3cc(NC(=O)c4nsc(NCCN)c4Cl)cn3C)cn2C)cn1C [V-c]
MIC [1]: 8 µg/mL (≈ 11.9 µM) | Binding Constant, sequence ACTACT (ACTACT): 2e+08 M⁻¹ | MIC [2]: 8 µg/mL (≈ 11.9 µM) | MIC [3]: 8 µg/mL (≈ 11.9 µM) | MIC [12]: 2 µg/mL (≈ 2.98 µM) | MIC [4]: 16 µg/mL (≈ 23.8 µM) | MIC [5]: 1 µg/mL (≈ 1.49 µM) | MIC [6]: 2 µg/mL (≈ 2.98 µM) | MIC [13]: 8 µg/mL (≈ 11.9 µM) | MIC (Micrococcus luteus (381)): 8 µg/mL (≈ 11.9 µM) | MIC [7]: >128 µg/mL | MIC [8]: 4 µg/mL (≈ 5.95 µM) | MIC (Esherichia coli (25922)): >128 µg/mL | MIC (Bacillus cereus (11778); Bacillus cereus (11778)): 4 µg/mL (≈ 5.95 µM) | MIC [9]: 4 µg/mL (≈ 5.95 µM) | Binding Constant, sequence ATTACT (ATTACT): 2e+08 M⁻¹ | Binding Constant, sequence AGTACT (AGTACT): 5e+09 M⁻¹ | Binding Constant, sequence AATACT (AATACT): 2e+08 M⁻¹ | MIC (Candida albicans (90028)): 8 µg/mL (≈ 11.9 µM) | MIC (Bacillus subtilis (6633)): 4 µg/mL (≈ 5.95 µM) | MIC [10]: 2 µg/mL (≈ 2.98 µM) | MIC [14]: 0.5 µg/mL (≈ 0.744 µM)

CN=C(CCNC(=O)c1cc(NC(=O)c2cc(NC(=O)c3cc(NC(=O)c4nsc(Cl)c4Cl)cn3C)cn2C)cn1C)NC [V-nn]
MIC [1]: 0.031 µg/mL (≈ 0.0469 µM) | MIC (Esherichia coli (25922)): 32 µg/mL (≈ 48.4 µM) | MIC (Bacillus cereus (11778); Bacillus cereus (11778)): 0.064 µg/mL (≈ 0.0967 µM) | MIC [11]: 1 µg/mL (≈ 1.51 µM)

Cn1cc(NC(=O)c2cc(NC(=O)c3cc(NC(=O)c4nsc(NCC5CC5)c4Cl)cn3C)cn2C)cc1C(=O)NCCN1CCOCC1 [V-tt]
MIC [1]: 0.5 µg/mL (≈ 0.703 µM) | MIC (Esherichia coli (25922)): 32 µg/mL (≈ 45 µM) | MIC (Bacillus cereus (11778); Bacillus cereus (11778)): 0.25 µg/mL (≈ 0.351 µM) | MIC [11]: 32 µg/mL (≈ 45 µM)

CN(C)CCCNC(=O)c1cc(NC(=O)c2cc(NC(=O)c3cc(NC(=O)c4nsc(N5CCCCC5)c4Cl)cn3C)cn2C)cn1C [V-w]
MIC (Bacillus cereus (11778); [18]): 0.5 µg/mL (≈ 0.717 µM)

CN(C)CCCNC(=O)CCNC(=O)c1cc(NC(=O)c2cc(NC(=O)c3cc(NC(=O)c4nc(NC(=O)CCCNC(=O)c5cc(NC(=O)c6cc(NC(=O)c7cc(NC(=O)c8nsc(Cl)c8Cl)cn7C)cn6C)cn5C)cn4C)cn3C)cn2C)cn1C [VI-a]
Binding Constant, sequence ACTACT (ACTACT): 2e+09 M⁻¹ | Binding Constant, sequence ATTACT (ATTACT): 2e+09 M⁻¹ | Binding Constant, sequence AGTACT (AGTACT): 2e+10 M⁻¹ | Binding Constant, sequence AATACT (AATACT): 2e+09 M⁻¹

COc1snc(C(=O)Nc2cc(C(=O)Nc3cc(C(=O)Nc4cc(C(=O)NCCC(=N)N)n(C)c4)n(C)c3)n(C)c2)c1Cl [V-jj]
MIC [1]: 0.5 µg/mL (≈ 0.795 µM) | MIC (Esherichia coli (25922)): 32 µg/mL (≈ 50.9 µM) | MIC (Bacillus cereus (11778); Bacillus cereus (11778)): 0.25 µg/mL (≈ 0.397 µM) | MIC [11]: 1 µg/mL (≈ 1.59 µM)

COCCCNc1snc(C(=O)Nc2cc(C(=O)Nc3cc(C(=O)Nc4cc(C(=O)NCCN5CCOCC5)n(C)c4)n(C)c3)n(C)c2)c1Cl [V-rr]
MIC [1]: 1 µg/mL (≈ 1.37 µM) | MIC (Esherichia coli (25922)): 32 µg/mL (≈ 43.9 µM) | MIC (Bacillus cereus (11778); Bacillus cereus (11778)): 0.5 µg/mL (≈ 0.686 µM) | MIC [11]: 32 µg/mL (≈ 43.9 µM)

CCN(CC)CCNC(=O)CCNC(=O)c1cc(NC(=O)c2cc(NC(=O)c3nsc(NCCN(CC)CC)c3Cl)cn2C)cn1C [V-r]
MIC [1]: >128 µg/mL | MIC [15]: 2 µg/mL (≈ 2.89 µM) | MIC [6]: 16 µg/mL (≈ 23.1 µM) | MIC [16]: >128 µg/mL | MIC [8]: 16 µg/mL (≈ 23.1 µM) | MIC (Esherichia coli (25922)): >128 µg/mL | MIC [17]: 16 µg/mL (≈ 23.1 µM) | MIC (Bacillus cereus (11778); Bacillus cereus (11778)): >128 µg/mL | MIC (Candida albicans (90028)): >128 µg/mL | MIC [11]: >128 µg/mL
